Assays:
Enterococcus sp. = assay: in vitro antibacterial evaluation, MIC by broth dilution; assay type: cell-based
Method in brief: (§1)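 Broth dilution per NCCLS standard M7-A2 in Muller-Hinton II […], with an inoculum of 5×10^5 CFU/mL and antibiotic spanning 64-0.06 μg/mL. The MIC is the lowest concentration that inhibits growth of the organism.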

Staphylococcus sp. = assay: as above; assay type: cell-based
Method in brief: as §1

Streptococcus sp. = assay: as above; assay type: cell-based; settings: broth dilution, 18 hours at 35° C.
Method in brief: as §1

[1] = tested on: Staphylococcus aureus-SMITH (GC 4543); assay: acute lethal infection in mice; assay type: in vivo; settings: acute lethal infection, female CD-1 mice, intraperitoneal challenge, intravenous 30 min. after infection, 7 day survival
Method in brief: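 Protocol: bacteria suspended in trypticase soy broth or hog gastric mucin injected ip into female CD-1 mice at a level killing untreated controls in 24-48 hr; compound given iv in saline or 5% dextrose 30 min post-challenge; five mice per dose; ED50 derived from pooled 7 day survival of three runs.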

[2] = anatomic pathology (histopathology of heart and kidney) in mice; assay type: in vivo; settings: CD-1 mice, 20 mg/kg intravenously daily for 9 days, necropsy day 10, microscopic histopathology
Method: Samples of tissues from necropsied mice were formalin-fixed, paraffin-embedded, sectioned, stained with hematoxylin and eosin, and examined microscopically. Histopathologic findings were recorded. These findings were subjectively graded on a scale corresponding to slight, mild, moderate, marked and severe as compared to untreated controls.

Escherichia coli [3] = assay: in vitro antibacterial evaluation, MIC by broth dilution; assay type: cell-based; settings: broth dilution, 18 hours at 35° C.
Method in brief: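 Broth dilution in Muller-Hinton II medium per NCCLS standard M7-A2, with an inoculum of 5×10^5 CFU/mL and antibiotic tested over 64-0.06 μg/mL. MIC was taken as the lowest concentration inhibiting visible growth.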

Escherichia coli [4] = assay: as above; assay type: cell-based; settings: 18 hours at 35° C.
[5] = broth dilution, 18 hours at 35° C.

Cc1ccc(Oc2cccc(-c3nc4cc(CC5NC(=O)C(C(C)c6ccccc6)NC(=O)CNC(=O)C(CO)NC(=O)C(C(O)C6CNC(=N)N6C6OC(CO)C(O)C(O)C6O)NC(=O)C(C(O)C6CNC(=N)N6)NC5=O)ccc4o3)c2)cc1 (stereo not drawn) [Example 28, Cyclo[3-[2-[3-(4-methylphenoxy)phenyl]-1,3-benzoxazol-5-yl]alanyl-3-(2-iminoimidazolidin-4-yl)seryl-3-(3-hexopyranosyl-2-iminoimidazolidin-4-yl)serylserylglycyl-β-methylphenyl-alanyl]]
8 µg/mL: MIC Enterococcus faecalis (ATCC 29212) (Enterococcus sp.; strain ATCC 29212; broth dilution, 18 hours at 35° C.) | MIC Enterococcus faecium (GC 2243) (Enterococcus sp.; strain GC 2243; broth dilution, 18 hours at 35° C.) | MIC Enterococcus faecalis (GC 2691) (Enterococcus sp.; strain GC 2691; broth dilution, 18 hours at 35° C.) | MIC Enterococcus faecalis (GC 3059) (Enterococcus sp.; strain GC 3059; broth dilution, 18 hours at 35° C.) | MIC Enterococcus faecalis (GC 4552) (Enterococcus sp.; strain GC 4552; broth dilution, 18 hours at 35° C.) | MIC Enterococcus faecalis (GC 4554) (Enterococcus sp.; strain GC 4554; broth dilution, 18 hours at 35° C.) | MIC Enterococcus faecium (GC 4556) (Enterococcus sp.; strain GC 4556; broth dilution, 18 hours at 35° C.) | MIC Enterococcus faecalis (GC 6189) (Enterococcus sp.; strain GC 6189; broth dilution, 18 hours at 35° C.) | MIC Staphylococcus aureus (ATCC 29213) (Staphylococcus sp.; strain ATCC 29213; broth dilution, 18 hours at 35° C.) | MIC Staphylococcus aureus (GC 1131) (Staphylococcus sp.; strain GC 1131; broth dilution, 18 hours at 35° C.) | MIC Staphylococcus aureus (GC 4541) (Staphylococcus sp.; strain GC 4541; broth dilution, 18 hours at 35° C.) | MIC Staphylococcus aureus (GC 4542) (Staphylococcus sp.; strain GC 4542; broth dilution, 18 hours at 35° C.) | MIC Staphylococcus aureus (GC 4544) (Staphylococcus sp.; strain GC 4544; broth dilution, 18 hours at 35° C.) | MIC Coagulase Negative Staphylococcus (GC 4547) (Staphylococcus sp.; strain GC 4547; broth dilution, 18 hours at 35° C.) | MIC Escherichia coli (GC 4560) (Escherichia coli [3]; strain GC 4560)
2 µg/mL: MIC Coagulase Negative Staphylococcus (GC 6257) (Staphylococcus sp.; strain GC 6257; broth dilution, 18 hours at 35° C.)
4 µg/mL: MIC Enterococcus faecalis (GC 2242) (Enterococcus sp.; strain GC 2242; broth dilution, 18 hours at 35° C.) | MIC Enterococcus faecalis (GC 4553) (Enterococcus sp.; strain GC 4553; broth dilution, 18 hours at 35° C.) | MIC Enterococcus faecium (GC 4557) (Enterococcus sp.; strain GC 4557; broth dilution, 18 hours at 35° C.) | MIC Enterococcus avium (GC 4558) (Enterococcus sp.; strain GC 4558; broth dilution, 18 hours at 35° C.) | MIC Staphylococcus aureus (GC 3051) (Staphylococcus sp.; strain GC 3051; broth dilution, 18 hours at 35° C.) | MIC Staphylococcus aureus (GC 3053) (Staphylococcus sp.; strain GC 3053; broth dilution, 18 hours at 35° C.) | MIC Staphylococcus aureus-SMITH (GC 4543) (Staphylococcus sp.; strain GC 4543; broth dilution, 18 hours at 35° C.) | MIC Staphylococcus aureus (GC 4545) (Staphylococcus sp.; strain GC 4545; broth dilution, 18 hours at 35° C.) | MIC Staphylococcus haemolyticus (GC 4546) (Staphylococcus sp.; strain GC 4546; broth dilution, 18 hours at 35° C.) | MIC Coagulase Negative Staphylococcus (GC 4548) (Staphylococcus sp.; strain GC 4548; broth dilution, 18 hours at 35° C.) | MIC Coagulase Negative Staphylococcus (GC 4549) (Staphylococcus sp.; strain GC 4549; broth dilution, 18 hours at 35° C.) | MIC Coagulase Negative Staphylococcus (GC 4551) (Staphylococcus sp.; strain GC 4551; broth dilution, 18 hours at 35° C.) | MIC Streptococcus pneumoniae (ATCC 6301) (Streptococcus sp.; strain ATCC 6301) | MIC Streptococcus pneumoniae (GC 1894) (Streptococcus sp.; strain GC 1894) | MIC Streptococcus agalactiae (GC 4564) (Streptococcus sp.; strain GC 4564) | MIC Streptococcus pneumoniae (GC 4565) (Streptococcus sp.; strain GC 4565)
8 mg/kg: median effective dose (ED50), Staphylococcus aureus-SMITH (GC 4543) [1]
64 µg/mL: MIC Escherichia coli (ATCC 25922) (Escherichia coli [3]; strain ATCC 25922) | MIC Escherichia coli (GC 4559) (Escherichia coli [3]; strain GC 4559)
1 µg/mL: MIC Streptococcus pyogenes (GC 4563) (Streptococcus sp.; strain GC 4563)
0: Anatomical Pathology (Day 10), Heart [2] | Anatomical Pathology (Day 10), Kidney [2]

CCCOc1ccc(COCC2OC(OC3C(CO)OC(Oc4ccc(CC5NC(=O)C(C(C)c6ccccc6)NC(=O)CNC(=O)C(CO)NC(=O)C(C(O)C6CNC(=N)N6C6OC(CO)C(O)C(O)C6O)NC(=O)C(C(O)C6CNC(=N)N6)NC5=O)cc4)C(O)C3O)C(O)C(O)C2O)cc1 (stereo not drawn) [Example 235, Cyclo[glycyl-β-methylphenylalanyl-O-[4-O-[6-O-(4-propoxybenzyl)hexopyranosyl]hexopyranosyl]tyrosyl-3-(2-iminoimidazolidin-4-yl)seryl-3-(3-hexopyranosyl-2-iminoimidazolidin-4-yl)serylseryl]]
<0.06 to 0.12 µg/mL: MIC Streptococcus pneumoniae (GC 4565) (Streptococcus sp.) | MIC Streptococcus pneumoniae (GC 4565) (Streptococcus sp.; inoculum 5×10^5 CFU/mL, strain GC 4565)
1 to 2 µg/mL: MIC Staphylococcus aureus (GC 1131) (Staphylococcus sp.; [5]) | MIC Staphylococcus aureus (GC 3053) (Staphylococcus sp.; [5]) | MIC Staphylococcus aureus (GC 4544) (Staphylococcus sp.; [5]) | MIC Staphylococcus aureus (GC 4545) (Staphylococcus sp.; [5]) | MIC Staphylococcus aureus (GC 1131) (Staphylococcus sp.; broth dilution, 18 hours at 35° C.; strain GC 1131) | MIC Staphylococcus aureus (GC 3053) (Staphylococcus sp.; broth dilution, 18 hours at 35° C.; strain GC 3053) | MIC Staphylococcus aureus (GC 4544) (Staphylococcus sp.; broth dilution, 18 hours at 35° C.; strain GC 4544) | MIC Staphylococcus aureus (GC 4545) (Staphylococcus sp.; broth dilution, 18 hours at 35° C.; strain GC 4545)
0.5 to 1 µg/mL: MIC Coagulase Negative Staphylococcus (GC 4547) (Staphylococcus sp.; [5]) | MIC Coagulase Negative Staphylococcus (GC 4551) (Staphylococcus sp.; [5]) | MIC Staphylococcus aureus (ATCC 29213) (Staphylococcus sp.; [5]) | MIC Staphylococcus aureus (GC 4541) (Staphylococcus sp.; [5]) | MIC Staphylococcus aureus-SMITH (GC 4543) (Staphylococcus sp.; [5]) | MIC Staphylococcus aureus (ATCC 29213) (Staphylococcus sp.; broth dilution, 18 hours at 35° C.; strain ATCC 29213) | MIC Staphylococcus aureus (GC 4541) (Staphylococcus sp.; broth dilution, 18 hours at 35° C.; strain GC 4541) | MIC Staphylococcus aureus-SMITH (GC 4543) (Staphylococcus sp.; broth dilution, 18 hours at 35° C.; strain GC 4543) | MIC Coagulase Negative Staphylococcus (GC 4547) (Staphylococcus sp.; broth dilution, 18 hours at 35° C.; strain GC 4547) | MIC Coagulase Negative Staphylococcus (GC 4551) (Staphylococcus sp.; broth dilution, 18 hours at 35° C.; strain GC 4551) | MIC Escherichia coli (GC 4560) (Escherichia coli [4])
0.25 µg/mL: MIC Streptococcus pyogenes (GC 4563) (Streptococcus sp.) | MIC Streptococcus pyogenes (GC 4563) (Streptococcus sp.; inoculum 5×10^5 CFU/mL, strain GC 4563)
0.59 mg/kg: median effective dose (ED50), Staphylococcus aureus-SMITH (GC 4543) [1]
0.5 to 2 µg/mL: MIC Enterococcus faecium (GC 4557) (Enterococcus sp.; [5]) | MIC Enterococcus faecium (GC 4557) (Enterococcus sp.; broth dilution, 18 hours at 35° C.; strain GC 4557) | MIC Staphylococcus aureus (GC 3051) (Staphylococcus sp.; [5]) | MIC Staphylococcus aureus (GC 4542) (Staphylococcus sp.; [5]) | MIC Staphylococcus aureus (GC 3051) (Staphylococcus sp.; broth dilution, 18 hours at 35° C.; strain GC 3051) | MIC Staphylococcus aureus (GC 4542) (Staphylococcus sp.; broth dilution, 18 hours at 35° C.; strain GC 4542)
4 to 8 µg/mL: MIC Enterococcus faecalis (GC 3059) (Enterococcus sp.; [5]) | MIC Enterococcus faecalis (GC 4554) (Enterococcus sp.; [5]) | MIC Enterococcus faecalis (GC 4554) (Enterococcus sp.; broth dilution, 18 hours at 35° C.; strain GC 4554) | MIC Enterococcus faecalis (GC 3059) (Enterococcus sp.; broth dilution, inoculum 5×10^5 CFU/mL, 18 hours at 35° C.; strain GC 3059)
<0.06 µg/mL: MIC Streptococcus pneumoniae (GC 1894) (Streptococcus sp.) | MIC Streptococcus pneumoniae (GC 1894) (Streptococcus sp.; inoculum 5×10^5 CFU/mL, strain GC 1894)
0.12 µg/mL: MIC Streptococcus pneumoniae (ATCC 6301) (Streptococcus sp.) | MIC Streptococcus pneumoniae (ATCC 6301) (Streptococcus sp.; inoculum 5×10^5 CFU/mL, strain ATCC 6301)
4 µg/mL: MIC Enterococcus avium (GC 4558) (Enterococcus sp.; [5]) | MIC Enterococcus faecalis (ATCC 29212) (Enterococcus sp.; [5]) | MIC Enterococcus faecalis (GC 2242) (Enterococcus sp.; [5]) | MIC Enterococcus faecalis (GC 2691) (Enterococcus sp.; [5]) | MIC Enterococcus faecalis (GC 4552) (Enterococcus sp.; [5]) | MIC Enterococcus faecalis (GC 4553) (Enterococcus sp.; [5]) | MIC Enterococcus faecalis (GC 6189) (Enterococcus sp.; [5]) | MIC Enterococcus faecium (GC 2243) (Enterococcus sp.; [5]) | MIC Enterococcus faecium (GC 4556) (Enterococcus sp.; [5]) | MIC Enterococcus faecalis (ATCC 29212) (Enterococcus sp.; broth dilution, 18 hours at 35° C.; strain ATCC 29212) | MIC Enterococcus faecium (GC 2243) (Enterococcus sp.; broth dilution, 18 hours at 35° C.; strain GC 2243) | MIC Enterococcus faecalis (GC 4552) (Enterococcus sp.; broth dilution, 18 hours at 35° C.; strain GC 4552) | MIC Enterococcus faecalis (GC 4553) (Enterococcus sp.; broth dilution, 18 hours at 35° C.; strain GC 4553) | MIC Enterococcus faecium (GC 4556) (Enterococcus sp.; broth dilution, 18 hours at 35° C.; strain GC 4556) | MIC Enterococcus avium (GC 4558) (Enterococcus sp.; broth dilution, 18 hours at 35° C.; strain GC 4558) | MIC Enterococcus faecalis (GC 6189) (Enterococcus sp.; broth dilution, 18 hours at 35° C.; strain GC 6189) | MIC Enterococcus faecalis (GC 2242) (Enterococcus sp.; broth dilution, inoculum 5×10^5 CFU/mL, 18 hours at 35° C.; strain GC 2242) | MIC Enterococcus faecalis (GC 2691) (Enterococcus sp.; broth dilution, inoculum 5×10^5 CFU/mL, 18 hours at 35° C.; strain GC 2691)
0.25 to 0.5 µg/mL: MIC Coagulase Negative Staphylococcus (GC 4548) (Staphylococcus sp.; [5]) | MIC Coagulase Negative Staphylococcus (GC 4549) (Staphylococcus sp.; [5]) | MIC Coagulase Negative Staphylococcus (GC 6257) (Staphylococcus sp.; [5]) | MIC Staphylococcus haemolyticus (GC 4546) (Staphylococcus sp.; [5]) | MIC Staphylococcus haemolyticus (GC 4546) (Staphylococcus sp.; broth dilution, 18 hours at 35° C.; strain GC 4546) | MIC Coagulase Negative Staphylococcus (GC 4548) (Staphylococcus sp.; broth dilution, 18 hours at 35° C.; strain GC 4548) | MIC Coagulase Negative Staphylococcus (GC 4549) (Staphylococcus sp.; broth dilution, 18 hours at 35° C.; strain GC 4549) | MIC Coagulase Negative Staphylococcus (GC 6257) (Staphylococcus sp.; broth dilution, 18 hours at 35° C.; strain GC 6257) | MIC Streptococcus agalactiae (GC 4564) (Streptococcus sp.) | MIC Streptococcus agalactiae (GC 4564) (Streptococcus sp.; inoculum 5×10^5 CFU/mL, strain GC 4564)
